Data set [1] relates to Escherichia coli 06 JCM 5491. Briefly: MIC/MBC by viable count after 1 day cultivation. Format: cell-based. To be noted: for MBC: Escherichia coli; for synergistic effects with thionin, compared with EDTA-2Na: with alpha-type thionin of wheat 10 μg/mL. On the procedure:
(§1) Bacillus cereus was inoculated into a sensitive measurement medium (manufactured by Nissui Pharmaceutical Co., Ltd., Tokyo, Japan), and other bacteria such as food poisoning bacteria were inoculated into an LB medium (1% polypeptone, 0.5% yeast extract, 0.5% sodium chloride, pH 7.2) and incubated at 37° C. for 1 day.
(§2) Then, after adding predetermined amounts of thionin and EDTA, the bacteria were inoculated so that the concentration of bacteria was about 1×10^6 cells/mL. After cultivating the bacteria for 1 day for other bacteria, the viable count was measured by a method of diluted plate culture. The concentration in which the viable count was decreased to 1/100 or less was defined as minimum bactericidal concentration (MBC) and the concentration in which the viable count was not increased was defined as minimum inhibitory concentration (MIC). The results obtained are shown in Tables 1, 2 and 3, as well as in FIG. 1.

Data set [2] has as its system Salmonella typhimurium JCM 6977. Briefly: MIC/MBC by viable count after 1 day cultivation. Format: cell-based. To be noted: for MBC: Salmonella enterica; for synergistic effects with thionin, compared with EDTA-2Na: with alpha-type thionin of wheat 10 μg/mL. On the procedure: as §1, §2
Another data set has as its system E. coli. The following applies: high concentration (10 mM); cited from earlier work.
The test system of a further data set is V. parahaemolyticus. To be noted: high concentration (10 mM); cited from earlier work.
The conditions of data set [3]: as food additive; cited from earlier work.
Data set [4] deals with Bacillus cereus IFO 15305. Briefly: MIC/MBC by viable count after 1 day cultivation. Format: cell-based. To be noted: sensitive measurement medium, 37° C. On the procedure: as §1, §2
The next data set relates to Bacillus cereus JCM 2152. Briefly: MIC/MBC by viable count after 1 day cultivation. Format: cell-based. The following applies: sensitive measurement medium, 37° C. On the procedure: as §1, §2
For data set [5], the system named is Escherichia coli 01:K1:H7 JCM 1649. Briefly: MIC/MBC by viable count after 1 day cultivation. Format: cell-based. To be noted: LB medium, 37° C. On the procedure:
as §1, §2

In data set [6] the test system is Salmonella enteritidis IFO 3313. Description: MIC/MBC by viable count after 1 day cultivation. Format: cell-based. The following applies: LB medium, 37° C. On the procedure: as §1, §2
The test system of data set [7] is Vibrio parahaemolyticus IFO 12711. Description: MIC/MBC by viable count after 1 day cultivation. Format: cell-based. The following applies: LB medium, 37° C. On the procedure: as §1, §2
The test system of data set [8] is test bacteria (food poisoning bacteria). Briefly: MIC/MBC, text summary over the test bacteria. Format: cell-based. The following applies: for MBC: added alone. On the procedure:
as §1, §2

The next data set relates to guinea pig. To be noted: administered once with 103 to 229 mg/kg body weight, observed for 7 days; cited from earlier work.
A further data set has as its target T1, trypsin (Bos taurus, UniProt P00760).
T1 construct: gene PRSS1
T1 sequence (P00760 24-246): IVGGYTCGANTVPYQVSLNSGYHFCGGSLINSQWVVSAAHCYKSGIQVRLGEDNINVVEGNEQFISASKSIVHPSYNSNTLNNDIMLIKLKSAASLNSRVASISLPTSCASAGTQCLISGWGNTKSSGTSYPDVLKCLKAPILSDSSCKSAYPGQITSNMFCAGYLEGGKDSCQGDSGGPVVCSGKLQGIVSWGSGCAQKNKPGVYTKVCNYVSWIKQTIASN
To be noted: cited from earlier work.

Where [9] appears, read: EDTA-2Na added alone, LB medium, 37° C., 1 day.
[10] abbreviates: thionin added alone, LB medium, 37° C., 1 day.

≈ marks a conversion by molar mass, not a printed value.

Results on four molecules are retold here after patent US20030091555A1, “Bactericidal composition containing peptide and chelating agent” (NATIONAL AGRICULTURAL RESEARCH ORGANIZATION, priority 2001, published 2003).

Regarding `O=C(O)CN(CCN(CC(=O)O)CC(=O)O)CC(=O)O` [EDTA, ethylenediaminetetraacetic acid], the MBC in [1] (JCM5491, Thionin (10 μg/mL) +: with alpha-type thionin of wheat) was 0.001 µM (≈ 0.292 ng/mL); in [1] (JCM5491, Thionin (10 μg/mL) −: without alpha-type thionin of wheat) it was 0.005 µM (≈ 1.46 ng/mL); in data set [2] (Thionin (10 μg/mL) +: with alpha-type thionin of wheat) it was 0.0001 µM (≈ 0.0292 ng/mL); in data set [2] (Thionin (10 μg/mL) −: without alpha-type thionin of wheat) it was 0.005 µM (≈ 1.46 ng/mL). The “synergistic effects with thionin, compared with EDTA-2Na” value in data set [1] and in data set [2] was “identical to or higher than that of EDTA-2Na” each time. For the same molecule, the antibacterial activity result in the data set on E. coli and with V. parahaemolyticus was “shows antibacterial activity” each time. In [3], the “ADI (Acceptable Daily Intake)” value is 2.5 mg/kg body weight.

With `O=C([O-])CN(CCN(CC(=O)[O-])CC(=O)O)CC(=O)O.[Na+].[Na+]` [EDTA-2Na, EDTA disodium], the “MBC EDTA-2Na” value is 200 µM in data set [4] (EDTA-2Na added alone); 500 µM with Bacillus cereus JCM 2152 (EDTA-2Na added alone); 50000 µM in [5] (EDTA-2Na added alone); 10000 µM in data set [1] (setting [9]); 50< mM in data set [6] (EDTA-2Na added alone); 20000 µM in data set [2] (setting [9]). Moreover, the “MBC EDTA-2Na” value in data set [7] (EDTA-2Na added alone) stood at 1000 µM. Besides, the “MBC of EDTA-2Na as compared with the addition of EDTA-2Na alone” value in data set [8] (10 μg/mL alpha-type thionin of wheat added simultaneously, food poisoning bacteria) is “decreased”. Further, the MBC was at least 10000 µM in data set [8] (Salmonella sp. and E. coli); at most 1000 µM in data set [8] (other bacteria (not Salmonella sp., E. coli)).

`O=C([O-])CN(CCN(CC(=O)[O-])CC(=O)[O-])CC(=O)[O-].[Na+].[Na+].[Na+].[Na+]` [EDTA-4Na, EDTA-tetrasodium salt]: the “synergistic effects with thionin, compared with EDTA-2Na” value in [1] and in data set [2] was “identical to or higher than that of EDTA-2Na” throughout.

In the case of thionin [reference compound], the “MIC Thionin” value in [4] (thionin added alone) is 100< μg/mL; against Bacillus cereus JCM 2152 (thionin added alone) it was 100 mg/L; in [5] (thionin added alone), 100< μg/mL; in data set [1] (setting [10]), 100 mg/L; in [6] (thionin added alone), 100< μg/mL; in data set [2] (setting [10]) it was 30 mg/L. Moreover, the “MIC Thionin” value in data set [7] (thionin added alone) came to 20 mg/L. Also, in the data set with guinea pig, the abnormality after administration result was “no abnormality was observed”. Moreover, the “decomposition by a digestive enzyme” value with trypsin was “rapid decomposition”.

For orientation: MBC means the lowest tested concentration that kills the bacteria rather than only halting them. Low readings indicate more potent killing, high ones less potent killing.
